{"source": "patent US8975275B2", "about": "“Use of chemotherapeutic agents” (priority 1999, dated 2015)", "key": {"bacteraemia": {"tested_on": "bacteraemia", "conditions": "systemic administration ten minutes prior to a dental extraction; cited from earlier work"}, "[1]": {"tested_on": "Staphylococcus aureus strains", "conditions": "microorganisms isolated from the root canals after topical antibiotic treatment; cited from earlier work"}, "Staphylococcus epidermis": {"tested_on": "Staphylococcus epidermis", "conditions": "microorganisms isolated from the root canals after topical antibiotic treatment; cited from earlier work"}, "[2]": {"tested_on": "pulpitis due to carious diseases", "experiment": "Topical treatment of pulpitis due to carious diseases (patient cases)", "type": "in vivo, human", "description": "This is of great importance because, for example in the case of caries profunda, it is always necessary to decide whether softened residual dentin can be left over the pulp. By virtue of complete elimination of the microbes present, there is now a novel method of treatment wherein a thin softened dentin covering can be left if the compounds of formula (I) or formula (II) are used. This method of treatment makes it possible to free infected dentin layers of microbes and to stop pulp infections. This means that pain reactions are eliminated and pulp infections are to a certain extent cured. The pulp remains vital. The topical application of the compounds of formula (I) or formula (II) followed the removal of the carious dentin. The compounds of formula (I) or formula (II) were applied for example in aqueous solution, in a form of gelatinous consistency or on an inert carrier, for example by means of a cotton wool plug. The overlying cavity was occluded with a cement to seal the margins. The cotton wool plug was left in the cavity for three to six days. The compounds of formula (I) or formula (II) can be used in concentrations of 0.005 mg/ml to 200 mg/ml, Preferred concentrations are those ranging from 0.5 mg/ml to 150 mg/ml and particularly preferred concentrations are those ranging from 10 to 100 mg/ml."}, "periodontal diseases": {"tested_on": "periodontal diseases", "experiment": "Topical treatment of periodontal diseases (patient cases)", "type": "in vivo, human", "description": "To do this, threads or so-called chips impregnated with solutions or gelatinous preparations of the compounds of formula (I) or formula (II) are inserted in the gingival pocket. A possible alternative is to use medicament carriers in the form of trays covering the teeth and gingiva. Before they are applied, the gelatinous applications of the compounds of formula (I) or formula (II) are instilled into the gingival pockets. In addition, the gel containing the compounds of formula (I) or formula (II) can also be placed in the medicament carrier. This use of medicament carriers is advantageous because the treatment time can be reduced by the rapid onset of action to about 15 to 30 minutes, so the treatment can be carried out directly in the surgery. The compounds of formula (I) or formula (II) can be used in concentrations of 0.005 mg/ml to 200 mg/ml. Preferred concentrations are those ranging from 0.5 mg/ml to 200 mg/ml and particularly preferred concentrations are those ranging from 10 to 150 mg/ml. Periodontal diseases can also be treated by administering the compounds of formula (I) or formula (II) by intraligamental injection, it being possible to use concentrations ranging from 0.005 mg/ml to 200 mg/ml, preferably from 0.5 mg/ml to 200 mg/ml. For the antibiotics commonly used nowadays, such as tetracyclines, an intraligamental injection is not reasonable since these compounds with a predominantly bacteriostatic action are quickly washed out due to the rapid fluid exchange in the periodontal interstice, and cannot develop their action. Tetra-cyclines can therefore only develop their effects via depot formulations. By contrast, the compounds of formula (I) or formula (II) have a very rapid and also bactericidal action, so their residence time in the periodontal interstice is sufficient to destroy the microbes."}, "osseomucosal wounds": {"tested_on": "osseomucosal wounds", "experiment": "Topical treatment of osseomucosal wounds (patient cases)", "type": "in vivo, human", "description": "Application is effected by flushing and/or by means of strip inserts impregnated with compounds of formula (I) or formula (II). They are to be used for example for postoperative infections following dentosurgical interventions (extractions). For this purpose the gel containing the compound of formula (I) or formula (II) is syringed directly into the extraction wound or onto a collagen sponge which remains in the extraction wound. The wound is closed for about half an hour by biting on a tampon. Prophylactic applications have been particularly successful after the extraction of teeth with focal infections, Liquid forms of administration suitable for flushing fistulae are those containing the compounds of formula (I) or formula (II) in concentrations of 0.005 mg/ml to 250 mg/ml. Preferred concentrations are those ranging from 0.5 to 100 mg/ml, Forms suitable for coating strips are gels containing the compounds of formula (I) or formula (II), as well as aqueous solutions or suspensions. These applications can contain the compounds of formula (I) or formula (II) in concentrations of 0.005 mg/ml to 200 mg/ml. Preferred concentrations for solutions are those ranging from 0.1 to 50 mg/ml Gelatinous forms of administration in concentrations of 25-150 mg/ml are preferred in the case of strip inserts."}, "[3]": {"tested_on": "infected root canal and periapical region", "experiment": "Topical treatment of the infected root canal and the periapical region (patient cases)", "type": "in vivo, human", "method": "In the clinical use of the compounds of formula (I) or formula (II), the pulp residues are removed first. The preparation of the canals is carried out with minimum discomfort for the patient. The canals are then flushed with hydrogen peroxide, Other methods of disinfection can be omitted. The compounds of formula (I) or formula (II), in a liquid form of administration, are then introduced into the toot canal under pressure using a cannula. The compounds of formula (I) or (II) are then injected in dissolved form or in a gelatinous form of administration. The root canal is subsequently occluded in the crown region, first with a cotton wool plug and then with zinc phosphate cement to seal the margins. If the canals are not gangrenous, the antibiotics remain in the canals for 3 days. […] The compounds of formula (I) or formula (II) can be used in concentrations of 0.005 mg/ml to 200 mg/ml.\nIn this application technique, which is known from intraligamental anaesthesia, the tooth is completely flooded with the antibacterial solution of the compounds of formula (I) or formula (II) in the entire root region."}}, "note": "Structures can show the parent of a compound that is named as a salt.", "data": [{"compound": "CO/N=C(\\C(=O)N[C@@H]1C(=O)N2C(C(=O)O)=C(COC(N)=O)CS[C@H]12)c1ccco1", "note": "[cefuroxim]", "values": [{"measurement": "frequency of bacteraemia versus the untreated group", "setting": "bacteraemia", "value": "lower frequency"}]}, {"compound": "O=C(N[C@H](CO)[C@H](O)c1ccc([N+](=O)[O-])cc1)C(Cl)Cl", "note": "[chloramphenicol]", "values": [{"measurement": "resistance of strains", "setting": "[1]", "value": "majority of Staphylococcus aureus strains were resistant"}]}, {"compound": "CC[C@H]1OC(=O)[C@H](C)[C@@H](O[C@H]2C[C@@](C)(OC)[C@@H](O)[C@H](C)O2)[C@H](C)[C@@H](O[C@@H]2O[C@H](C)C[C@H](N(C)C)[C@H]2O)[C@](C)(O)C[C@@H](C)C(=O)[C@H](C)[C@@H](O)[C@]1(C)O", "note": "[erythromycin]", "values": [{"measurement": "increase of resistance after the treatment", "setting": "Staphylococcus epidermis", "value": "three-fold"}, {"measurement": "resistance of strains", "setting": "[1]", "value": "majority of Staphylococcus aureus strains were resistant"}]}, {"compound": "CO/N=C1\\CN(c2nc3c(cc2F)c(=O)c(C(=O)O)cn3C2CC2)CC1CN", "note": "(stereo not drawn) [gemifloxacin mesylate, 7-[(4Z)-3-(aminomethyl)-4-(methoxyimino)-1-pyrrolidinyl]-1-cyclopropyl-6-fluoro-1,4-dihydro-4-oxo-1,8-naphtyridine-3-carboxylic acid]", "values": [{"measurement": "clinical finding at check-up", "setting": "[2]; Patient A 1.13, gel 25 mg/ml, repetition of insert, check-up after 4 days", "value": "tooth vital, patient symptom-free"}, {"measurement": "clinical finding at check-up", "setting": "[2]; Patient A 1.13, tooth 14, pellet insert gel 25 mg/ml, check-up after 3 weeks", "value": "still slight discomfort"}]}, {"compound": "Cc1c(F)c(N2CCNC(C)C2)cc2c1c(=O)c(C(=O)O)cn2C1CC1", "note": "(stereo not drawn) [grepafloxacin, 1-cyclopropyl-6-fluoro-1,4-dihydro-5-methyl-7-(3-methyl-1-piperazinyl)-4-oxo-3-quinolinecarboxylic acid]", "values": [{"measurement": "clinical finding at check-up", "setting": "periodontal diseases; Patient B 7, teeth 14-17 marginal periodontitis, thread insert gel 50 mg/ml + intraligamental injection 50 mg/ml, check-up after 9 days", "value": "patient symptom-free, gingival regions and pockets inflammation-free"}, {"measurement": "clinical finding at check-up", "setting": "osseomucosal wounds; Patient C 8, apical granulomas, extraction (osteotomy), gauze with gel 50 mg/ml, check-up after 3 days", "value": "patient is symptom-free"}, {"measurement": "clinical finding at check-up", "setting": "osseomucosal wounds; Patient C 9, same combined treatment, after root canal filling, check-up after 2 weeks", "value": "patient symptom-free"}, {"measurement": "clinical finding at check-up", "setting": "osseomucosal wounds; Patient C 9, tooth 14 pulpitis purulenta, fistulation, moxifloxacin hydrochloride solution 25 mg/ml flushing + grepafloxacin gel 25 mg/ml canal insert + moxifloxacin hydrochloride gel 25 mg/ml gauze insert, check-up after 6 days", "value": "patient symptom-free"}, {"measurement": "clinical finding at check-up", "setting": "[3]; Patient A 3.16, after root filling, check-up after 1 week", "value": "patient still symptom-free"}, {"measurement": "clinical finding at check-up", "setting": "[3]; Patient A 3.16, tooth 46 apical periodontitis, not gangrenous, root canal insert gel 50 mg/ml, check-up after 3 weeks", "value": "patient symptom-free"}, {"measurement": "clinical finding at check-up", "setting": "[3]; Patient A 3.17, after root filling, check-up after 4 days", "value": "patient symptom-free"}, {"measurement": "clinical finding at check-up", "setting": "[3]; Patient A 3.17, tooth 32 apical periodontitis due to gangrene, solution 20 mg/ml + gel 20 mg/ml + intraligamental injection 50 mg/ml, check-up after 6 days", "value": "no gangrenous odour, no bite discomfort"}, {"measurement": "clinical finding at check-up", "setting": "[3]; Patient A 3.23, tooth 34 fistulation, gangrenous, solution 50 mg/ml by paper point + intraligamental injection 50 mg/ml, check-up after 10 days", "value": "patient symptom-free"}, {"measurement": "clinical finding at check-up", "setting": "[2]; Patient A 1.11, gel 25 mg/ml, after final filling, check-up after 4 weeks", "value": "tooth vital, patient symptom-free"}, {"measurement": "clinical finding at check-up", "setting": "[2]; Patient A 1.11, tooth 22, pellet insert gel 25 mg/ml, check-up after 5 days", "value": "patient was symptom-free"}, {"measurement": "clinical finding at check-up", "setting": "[2]; Patient A 1.12, gel 50 mg/ml, after final filling, check-up after 14 days", "value": "teeth vital, patient symptom-free"}, {"measurement": "clinical finding at check-up", "setting": "[2]; Patient A 1.12, teeth 22, 23, pellet inserts gel 50 mg/ml, check-up after 1 week", "value": "teeth symptom-free"}]}, {"compound": "C[C@H]1COc2c(N3CCN(C)CC3)c(F)cc3c(=O)c(C(=O)O)cn1c23", "note": "[levofloxacin, (3S)-9-fluoro-2,3-dihydro-3-methyl-10-(4-methyl-1-piperazinyl)-7-oxo-7H-pyrido[1,2,3-de]-1,4-benzoxazine-6-carboxylic acid]", "values": [{"measurement": "clinical finding at check-up", "setting": "[2]; Patient A 1.14, tooth 13, night pain, pellet inserts gel 50 mg/ml, check-up after 14 days", "value": "patient symptom-free, tooth vital"}]}, {"compound": "COc1cccc(OC)c1C(=O)N[C@@H]1C(=O)N2[C@@H]1SC(C)(C)[C@@H]2C(=O)O", "note": "[methicillin]", "values": [{"measurement": "increase of resistance after the treatment", "setting": "Staphylococcus epidermis", "value": "two-fold"}]}, {"compound": "C[C@@H]1CN(c2c(F)c(N)c3c(=O)c(C(=O)O)cn(C4CC4)c3c2F)C[C@H](C)N1", "note": "[sparfloxacin, 5-amino-1-cyclopropyl-7-[(3R,5S)-3,5-dimethyl-1-piperazinyl]-6,8-difluoro-1,4-dihydro-4-oxo-3-quinolinecarboxylic acid]", "values": [{"measurement": "clinical finding at check-up", "setting": "[2]; Patient A 1.16, gel 25 mg/ml, repetition of insert, check-up after 14 days", "value": "patient symptom-free, tooth vital"}, {"measurement": "clinical finding at check-up", "setting": "[2]; Patient A 1.16, tooth 46 reduced vitality, pellet insert gel 25 mg/ml, check-up after 4 days", "value": "still slight sensitivity to heat"}]}, {"compound": "NC1CCN(c2nc3c(cc2F)c(=O)c(C(=O)O)cn3-c2ccc(F)cc2F)C1", "note": "(stereo not drawn) [tosufloxacin tosylate, 7-(3-amino-1-pyrrolidinyl)-1-(2,4-difluorophenyl)-6-fluoro-1,4-dihydro-4-oxo-1,8-naphthyridine-3-carboxylic acid]", "values": [{"measurement": "clinical finding at check-up", "setting": "[3]; Patient A 3.20, tooth 47 apical periodontitis, not gangrenous, root canal insert gel 100 mg/ml, check-up after 8 days", "value": "patient symptom-free"}, {"measurement": "clinical finding at check-up", "setting": "[3]; Patient A 3.22, tooth 35 apical periodontitis, not gangrenous, root canal insert gel 50 mg/ml, check-up after 10 days", "value": "patient symptom-free"}]}, {"compound": "N[C@@H]1[C@H]2CN(c3nc4c(cc3F)c(=O)c(C(=O)O)cn4-c3ccc(F)cc3F)C[C@@H]12", "note": "[trovafloxacin mesylate, 7-(1α,5α,6α-6-amino-3-azabicyclo[3.1.0]hex-3-yl)-1-(2,4-difluorophenyl)-6-fluoro-1,4-dihydro-4-oxo-1,8-naphthyridine-3-carboxylic acid]", "values": [{"measurement": "clinical finding at check-up", "setting": "periodontal diseases; Patient B 8, marginal periodontitis entire upper and lower jaw, medicinal splint gel 0.25 mg/ml 10 minutes/day for 6 days, check-up after 6 days", "value": "patient symptom-free, inflammation phenomena no longer present"}, {"measurement": "clinical finding at check-up", "setting": "[3]; Patient A 3.18, tooth 34 apical periodontitis due to gangrene, gel 100 mg/ml + intraligamental injection 50 mg/ml, check-up after 12 days", "value": "patient symptom-free"}, {"measurement": "clinical finding at check-up", "setting": "[3]; Patient A 3.19, tooth 11 apical periodontitis due to gangrene simplex, root canal insert solution 50 mg/ml, check-up after 3 weeks", "value": "patient symptom-free, canal odour-free"}, {"measurement": "clinical finding at check-up", "setting": "[2]; Patient A 1.15, tooth 44, night pain, pellet insert gel 50 mg/ml, check-up after 9 days", "value": "patient symptom-free, tooth vital"}]}, {"compound": "penicillin", "values": [{"measurement": "resistance of strains", "setting": "[1]", "value": "majority of Staphylococcus aureus strains were resistant"}]}]}
